Laboratory results reported in PubChem BioAssay (NCI).
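Values below derive from 48-hour exposures of cells grown in 96-well plates, with endpoints linearly interpolated between the two concentrations bracketing the appropriate inhibition level. Abbreviation: GI50, concentration required for 50% inhibition of growth. TGI: total growth inhibition.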

Columns and labels:
Experiment in all cases: growth of human tumour cells (NCI), 48 h
[1] = test system: 786-0 renal
[2] = test system: A549 NSCLC
[3] = test system: ACHN renal
[4] = test system: BT-549 breast
[5] = test system: CCRF-CEM leukemia
[6] = test system: DU-145 prostate
[7] = test system: EKVX NSCLC
[8] = test system: HCC-2998 colon
[9] = test system: HCT-116 colon
[10] = test system: HCT-15 colon
[11] = test system: HOP-92 NSCLC
[12] = test system: HS 578T breast
[13] = test system: HT29 colon
[14] = test system: IGROV1 ovarian
[15] = test system: K-562 leukemia
[16] = test system: KM12 colon
[17] = test system: M14 melanoma
[18] = test system: MALME-3M melanoma
[19] = test system: MDA-MB-231 breast
[20] = test system: MDA-MB-435
[21] = test system: MOLT-4 leukemia
[22] = test system: NCI-H226 lung
[23] = test system: NCI-H23 lung
[24] = test system: NCI-H460 lung
[25] = test system: NCI-H522 lung
[26] = test system: NCI/ADR-RES ovarian
[27] = test system: OVCAR-3 ovarian
[28] = test system: OVCAR-4 ovarian
[29] = test system: OVCAR-5 ovarian
[30] = test system: OVCAR-8 ovarian
[31] = test system: RXF 393 renal
[32] = test system: SF-268 CNS
[33] = test system: SF-295 CNS
[34] = test system: SF-539 CNS
[35] = test system: SK-MEL-2 melanoma
[36] = test system: SK-OV-3 ovarian
[37] = test system: SN12C renal
[38] = test system: SNB-19 CNS
[39] = test system: SNB-75 CNS
[40] = test system: SR leukemia
[41] = test system: T-47D breast
[42] = test system: TK-10 renal
[43] = test system: U251 CNS
[44] = test system: UACC-257 melanoma
[45] = test system: UACC-62 melanoma
[46] = test system: UO-31 renal
[47] = test system: A498 renal
[48] = test system: CAKI-1 renal
[49] = test system: COLO 205 colon
[50] = test system: HL-60(TB) leukemia
[51] = test system: HOP-62 NSCLC
[52] = test system: LOX IMVI melanoma
[53] = test system: MCF7 breast
[54] = test system: PC-3 prostate
[55] = test system: RPMI-8226 leukemia
[56] = test system: SK-MEL-28 melanoma
[57] = test system: SK-MEL-5 melanoma
[58] = test system: SW-620 colon

Structure (SMILES): CCOC(=O)c1cc(-c2ccc([N+](=O)[O-])cc2)c([N+](=O)[O-])[nH]1
- TGI [1]: > 10 µM
- TGI [2]: > 10 µM
- TGI [3]: > 10 µM
- TGI [4]: > 10 µM
- TGI [5]: > 10 µM
- TGI [6]: > 10 µM
- TGI [7]: > 10 µM
- TGI [8]: > 10 µM
- TGI [9]: > 10 µM
- TGI [10]: > 10 µM
- TGI [11]: 5.49 µM
- TGI [12]: > 10 µM
- TGI [13]: > 10 µM
- TGI [14]: > 10 µM
- TGI [15]: > 10 µM
- TGI [16]: > 10 µM
- TGI [17]: > 10 µM
- TGI [18]: > 10 µM
- TGI [19]: > 10 µM
- TGI [20]: 9.3 µM
- TGI [21]: > 10 µM
- TGI [22]: 5.77 µM
- TGI [23]: 8.01 µM
- TGI [24]: > 10 µM
- TGI [25]: > 10 µM
- TGI [26]: > 10 µM
- TGI [27]: > 10 µM
- TGI [28]: > 10 µM
- TGI [29]: > 10 µM
- TGI [30]: > 10 µM
- TGI [31]: 9.41 µM
- TGI [32]: > 10 µM
- TGI [33]: 7.47 µM
- TGI [34]: > 10 µM
- TGI [35]: > 10 µM
- TGI [36]: > 10 µM
- TGI [37]: > 10 µM
- TGI [38]: > 10 µM
- TGI [39]: > 10 µM
- TGI [40]: > 10 µM
- TGI [41]: 9.95 µM
- TGI [42]: > 10 µM
- TGI [43]: > 10 µM
- TGI [44]: 5.68 µM
- TGI [45]: > 10 µM
- TGI [46]: 9.69 µM

Structure (SMILES): Nc1nc(=S)c2ncn(C3OC(CO)C(O)C3O)c2[nH]1 (stereo unspecified)
- GI50 [1]: 0.348 µM
- GI50 [47]: 5.11 µM
- TGI [47]: > 87.6 µM
- GI50 [2]: 3.69 µM
- TGI [2]: > 33.6 µM
- GI50 [3]: 0.944 µM
- TGI [3]: 42.6 µM
- GI50 [4]: 2.12 µM
- TGI [4]: > 100 µM
- GI50 [48]: 0.703 µM
- TGI [48]: 5.88 µM
- GI50 [5]: 0.318 µM
- TGI [5]: > 68.2 µM
- GI50 [49]: 2.18 µM
- TGI [49]: 7.82 µM
- GI50 [6]: 0.542 µM
- TGI [6]: > 100 µM
- GI50 [7]: 2.02 µM
- TGI [7]: > 100 µM
- GI50 [8]: 0.7 µM
- TGI [8]: 5 µM
- GI50 [9]: 0.347 µM
- GI50 [10]: 0.92 µM
- TGI [10]: > 100 µM
- GI50 [50]: 1.67 µM
- TGI [50]: 11 µM
- GI50 [51]: 0.273 µM
- TGI [51]: 3.98 µM
- GI50 [11]: 0.33 µM
- TGI [11]: 7.53 µM
- GI50 [12]: 2.27 µM
- TGI [12]: > 86.1 µM
- GI50 [13]: 0.981 µM
- TGI [13]: > 100 µM
- GI50 [14]: 3.77 µM
- TGI [14]: > 35.5 µM
- GI50 [15]: 0.49 µM
- TGI [15]: > 61.1 µM
- GI50 [16]: 1.79 µM
- TGI [16]: > 27.8 µM
- GI50 [52]: 0.301 µM
- TGI [52]: 11.8 µM
- GI50 [17]: 0.304 µM
- TGI [17]: 3.13 µM
- GI50 [18]: 1.2 µM
- TGI [18]: 31.1 µM
- GI50 [53]: 0.389 µM
- TGI [53]: > 70.6 µM
- GI50 [19]: 1.39 µM
- TGI [19]: > 100 µM
- GI50 [20]: 1.02 µM
- TGI [20]: > 69.6 µM
- GI50 [21]: 0.433 µM
- TGI [21]: 10.3 µM
- GI50 [22]: 3.5 µM
- TGI [22]: > 100 µM
- GI50 [23]: 0.776 µM
- TGI [23]: > 100 µM
- GI50 [24]: 0.571 µM
- TGI [24]: 12.2 µM
- GI50 [25]: 1.8 µM
- TGI [25]: > 100 µM
- GI50 [26]: 0.4 µM
- GI50 [27]: 0.851 µM
- GI50 [28]: 1.86 µM
- TGI [28]: > 100 µM
- GI50 [29]: 0.827 µM
- TGI [29]: > 100 µM
- GI50 [30]: 0.903 µM
- TGI [30]: > 100 µM
- GI50 [54]: 2.34 µM
- TGI [54]: > 100 µM
- GI50 [55]: 0.322 µM
- TGI [55]: 2.29 µM
- GI50 [31]: 34.7 µM
- TGI [31]: > 100 µM
- GI50 [32]: 0.755 µM
- TGI [32]: > 100 µM
- GI50 [33]: 0.531 µM
- TGI [33]: > 100 µM
- GI50 [34]: 0.745 µM
- TGI [34]: > 79.2 µM
- GI50 [35]: 10.5 µM
- TGI [35]: > 100 µM
- GI50 [56]: 13.7 µM
- TGI [56]: > 100 µM
- GI50 [57]: 2.41 µM
- TGI [57]: 10.8 µM
- GI50 [36]: 0.379 µM
- TGI [36]: 7.76 µM
- GI50 [37]: 3.98 µM
- TGI [37]: > 100 µM
- GI50 [38]: 33.1 µM
- TGI [38]: > 100 µM
- GI50 [39]: 0.688 µM
- TGI [39]: > 100 µM
- GI50 [58]: 1.7 µM
- TGI [58]: > 100 µM
- GI50 [41]: 0.511 µM
- TGI [41]: 83.3 µM
- GI50 [42]: 0.633 µM
- TGI [42]: > 64.8 µM
- GI50 [43]: 6.5 µM
- TGI [43]: > 100 µM
- GI50 [44]: 31.8 µM
- TGI [44]: > 100 µM
- GI50 [45]: 0.446 µM
- TGI [45]: 5.67 µM
- GI50 [46]: 0.77 µM
- TGI [46]: > 100 µM
